Source: US20110053900A1, “PROGESTERONE ANTAGONISTS SUCH AS CDB-4124 IN THE TREATMENT OF BREAST CANCER” (Repros Therapeutics inc, priority 2008, published 2011)

Experiments:
[1] = test system: rabbit progesterone receptor (rbPR) and glucocorticoid receptor (rbGR); assay: Receptor-binding assays, ratio of relative binding affinities rbPR/rbGR; details: RBA = EC50 of standard/EC50 of test compound x 100
Method: Certain antiprogestins were tested in receptor-binding assays for their ability to bind rabbit progesterone receptor (rbPR) and glucocorticoid receptor (rbGR). Briefly, cytosol containing PR or GR were prepared in TEGMD buffer (10 mM Tris, pH 7.2, 1.5 mM EDTA, 0.2 mM sodium molybdate, 10% glycerol, 1 mM DTT) from uterus or thymus, respectively, of estradiol-primed immature rabbits. For PR binding, the cytosol was incubated with 6 nM 1,2-[^3H]progesterone (50.0 Ci/mmole) and competitors were added at concentrations from 2 to 100 nM. For binding to GR, the cytosol was incubated with 6 nM 6,7-[^3H]-dexamethasone (40 Ci/mmol) and test compounds were added at concentrations from 20 to 100 nM. After overnight incubation at 4° C., bound and unbound [^3H] steroids were separated by addition of dextran-coated charcoal and centrifugation at 2100×g for 15 min at 4
C. Supernatants containing the [3H]-steroid receptor complexes were decanted into vials containing 4 ml Optifluor (Packard Instrument Co.), vortexed, equilibrated in a liquid scintillation counter for 30 minutes and then counted for 2 minutes. The ECso (Effective Concentration) for each standard curve and each of the compound curves was determined by entering the counting data into a four parameter sigmoidal computer program (RiaSmart® Immunoassay Data Reduction Program, Packard Instrument Co., Meriden, Conn.). Relative binding affinity (RBA) for each compound was calculated using the following equation: EC50 of standard/EC50 of test compound×100. The standards for the PR and GR assays were unlabeled progesterone and dexamethasone, respectively. The results of these experiments are summarized in Table 1, as a ratio of the relative binding affinities of each compound for the rbPR and rbGR receptors (rbPR/rbGR).

rabbit uterus = assay: Anti-McGinty and anti-Clauberg assays; type: in vivo; details: average of anti-McGinty and anti-Clauberg results relative to CDB-2914 = 1.00
Text: Also given in the Table are the relative biological activities of the same compounds in the rabbit uterus by the anti-McGinty and anti-Clauberg assays. Compound CDB-2914 (listed at the end of the Table) was used as the control or reference compound (rabbit Biological Activity=1.00) for these experiments because results of experiments using CDB-2914 have been published before (Hild-Petito et al., 1996; Passaro et al., 1997; Reel et al., 1998; Lamer et al., 2000). For the anti-McGinty test, immature female rabbits received a subcutaneous injection of 5 μg estradiol in 10% ethanol/sesame oil daily for 6 consecutive days. On day 7, animals underwent sterile abdominal surgery to ligate a 3-4 cm segment of both uterine horns. The test compound in appropriate solvent was injected intraluminally into the ligated segment of one uterine horn and vehicle alone into the other. A stimulating dose of progesterone (267 μg/day) was administered subcutaneously to each rabbit daily for the next three days to induce endometrial proliferation. All animals were sacrificed at day 10 for removal of the uterus where a segment central to the ligatures was removed and fixed in 10% neutral buffered formalin and submitted for histological processing. Five micron sections stained with hematoxylin and cosin were evaluated microscopically for the degree of endometrial glandular proliferation. The percent inhibition of endometrial proliferation for each rabbit was calculated and the mean of the group of five animals recorded. For the Anti-Clauberg test, immature female rabbits received a subcutaneous injection of 5 μg estradiol in 10% ethanol/sesame oil daily for 6 consecutive days. On day 7, animals received progesterone by subcutaneous injection (160 μg/day) and the experimental compound in appropriate vehicle orally or subcutaneously for five consecutive days. One group of rabbits received progesterone only. Twenty-four hours after the last dose, all animals were sacrificed for removal of the uterus which was cleaned of all fat and connective tissue, weighed to the nearest 0.2 mg and placed in 10% neutral buffered formalin for subsequent histological processing. Five micron sections stained with hematoxylin and eosin were evaluated microscopically for the degree of endometrial glandular proliferation. The percent inhibition of endometrial proliferation at each dose level of the test compound was derived by comparison with progesterone-stimulated animals alone. The data presented in Table 1 (rabbit Biol. Act.) reflects the average of the results obtained for each compound by the anti-McGinty and anti-Clauberg assays relative to CDB-2914.

Row | Compound | rbPR/rbGR (ratio of the relative binding affinities for rbPR and rbGR) [1] | rabbit Biol. Act. (rabbit uterus)
1 | 4-benzoin-21-acetylthio-17α-acetoxy-11β-(4 N,N-dimethylaminophenyl)-19-norpregna-4,9-diene-3,20-dione [CDB-4119] | 2.60 | 0.10
2 | 21-(Cyp*-hydroxy)-17α-acetoxy-11β-(4 N,N-dimethylaminophenyl)-19-norpregna-4,9-diene-3,20-dione [CDB-4125] | 1.19 | 1.55
3 | 21-BMD-17α-acetoxy-11β-(4 N,N-dimethylaminophenyl)-19-norpregna-4,9-diene-3,20-dione [CDB-4111] | 1.30 | 0.36
4 | 21-methoxyacetyl-17α-acetoxy-11β-(4 N,N-dimethylaminophenyl)-19-norpregna-4,9-diene-3,20-dione [CDB-4362] | 4.74 | 1.25
5 | CCC(=O)[C@@]1(OC(C)=O)CCC2C3CCC4=CC(=O)CCC4=C3C(c3ccc(N(C)C)cc3)C[C@@]21C (stereo partly drawn) [CDB-4030, 21-methyl-17α-acetoxy-11β-(4 N,N-dimethylaminophenyl)-19-norpregna-4,9-diene-3,20-dione] | 0.96 | 
6 | CC(=O)O[C@]1(C(=O)CBr)CCC2C3CCC4=CC(=O)CCC4=C3C(c3ccc(N(C)C)cc3)C[C@@]21C (stereo partly drawn) [CDB-4031, 21-bromine-17α-acetoxy-11β-(4 N,N-dimethylaminophenyl)-19-norpregna-4,9-diene-3,20-dione] | 0.69 | 
7 | CC(=O)O[C@]1(C(=O)CF)CCC2C3CCC4=CC(=O)CCC4=C3C(c3ccc(N(C)C)cc3)C[C@@]21C (stereo partly drawn) [CDB-4058, 21-flourine-17α-acetoxy-11β-(4 N,N-dimethylaminophenyl)-19-norpregna-4,9-diene-3,20-dione] | 1.08 | 
8 | CC(=O)O[C@]1(C(=O)C[S+](C)[O-])CCC2C3CCC4=CC(=O)CCC4=C3C(c3ccc(N(C)C)cc3)C[C@@]21C (stereo partly drawn) [CDB-4101, 21-methoxythio-17α-acetoxy-11β-(4 N,N-dimethylaminophenyl)-19-norpregna-4,9-diene-3,20-dione] | 0.61 | 
9 | CC(=O)O[C@]1(C2COC(C)(C)O2)CCC2C3CCC4=CC(=O)CCC4=C3C(c3ccc(N(C)C)cc3)C[C@@]21C (stereo partly drawn) [CDB-4110, 21-acetonide-17α-acetoxy-11β-(4 N,N-dimethylaminophenyl)-19-norpregna-4,9-diene-3,20-dione] | 0.70 | 
10 | CC(=O)O[C@]1(C(=O)CO)CCC2C3CCC4=CC(=O)CCC4=C3C(c3ccc(N(C)C)cc3)C[C@@]21C (stereo partly drawn) [CDB-4152, 21-hydroxy-17α-acetoxy-11β-(4 N,N-dimethylaminophenyl)-19-norpregna-4,9-diene-3,20-dione] | 0.82 | 
11 | CCOCC(=O)[C@@]1(OC(C)=O)CCC2C3CCC4=CC(=O)CCC4=C3C(c3ccc(N(C)C)cc3)C[C@@]21C (stereo partly drawn) [CDB-4167, 21-ethyloxy-17α-acetoxy-11β-(4 N,N-dimethylaminophenyl)-19-norpregna-4,9-diene-3,20-dione] | 1.69 | 
12 | COCC(=O)C1(OC(C)=O)CCC2C3CCC4=CC(=NO)CCC4=C3C(c3ccc(N(C)C)cc3)C[C@@]21C (stereo partly drawn) [CDB-4205, 3-hydroxyamino-21-methoxy-17α-acetoxy-11β-(4 N,N-dimethylaminophenyl)-19-norpregna-4,9-diene-3,20-dione] | 1.99 | 1.00
13 | CC(=O)OCC(=O)[C@@]1(OC(C)=O)CCC2C3CCC4=CC(=NO)CCC4=C3C(c3ccc(N(C)C)cc3)C[C@@]21C (stereo partly drawn) [CDB-4206, 3-hydroxyamino-21-acetoxy-17α-acetoxy-11β-(4 N,N-dimethylaminophenyl)-19-norpregna-4,9-diene-3,20-dione] | 1.44 | 0.68
14 | CSCC(=O)[C@@]1(OC(C)=O)CCC2C3CCC4=CC(=O)CCC4=C3C(c3ccc(N(C)C)cc3)C[C@@]21C (stereo partly drawn) [CDB-4223, 21-methylthio-17α-acetoxy-11β-(4 N,N-dimethylaminophenyl)-19-norpregna-4,9-diene-3,20-dione] | 1.17 | 
15 | CCOCC(=O)[C@@]1(OC(C)=O)CCC2C3CCC4=CC(=NO)CCC4=C3C(c3ccc(N(C)C)cc3)C[C@@]21C (stereo partly shown) [CDB-4226] | 1.51 | 0.54
16 | COCC(=O)[C@@]1(OC(C)=O)CCC2C3CCC4=C(C(=O)c5ccccc5)C(=O)CCC4=C3C(c3ccc(N(C)C)cc3)C[C@@]21C (stereo partly drawn) [CDB-4239, 4-benzoin-21-methoxy-17α-acetoxy-11β-(4 N,N-dimethylaminophenyl)-19-norpregna-4,9-diene-3,20-dione] | 14.80 | 
17 | CCC(=O)OCC(=O)[C@@]1(OC(C)=O)CCC2C3CCC4=CC(=O)CCC4=C3C(c3ccc(N(C)C)cc3)C[C@@]21C (stereo partly drawn) [CDB-4247, 21-propionyloxy-17α-acetoxy-11β-(4 N,N-dimethylaminophenyl)-19-norpregna-4,9-diene-3,20-dione] | 2.06 | 
18 | CC(=O)O[C@]1(C(=O)COC(=O)CN)CCC2C3CCC4=CC(=O)CCC4=C3C(c3ccc(N(C)C)cc3)C[C@@]21C (stereo partly drawn) [CDB-4306, 21-glycinate-17α-acetoxy-11β-(4 N,N-dimethylaminophenyl)-19-norpregna-4,9-diene-3,20-dione] | 5.90 | 0.95
19 | CC(=O)O[C@]1(C(=O)CSC#N)CCC2C3CCC4=CC(=O)CCC4=C3C(c3ccc(N(C)C)cc3)C[C@@]21C (stereo partly drawn) [CDB-4352, 21-cyanothio-17α-acetoxy-11β-(4 N,N-dimethylaminophenyl)-19 norpregna-4,9-diene-3,20-dione] | 4.21 | 
20 | C=COCC(=O)[C@@]1(OC(C)=O)CCC2C3CCC4=CC(=O)CCC4=C3C(c3ccc(N(C)C)cc3)C[C@@]21C (stereo partly drawn) [CDB-4361, 21-vinyl ether-17α-acetoxy-11β-(4 N,N-dimethylaminophenyl)-19-norpregna-4,9-diene-3,20-dione] | 7.20 | 
